Source: PMC10644327, “A randomized, double‐blind phase 1b study evaluating the safety, tolerability, pharmacokinetics and pharmacodynamics of the NLRP3 inhibitor selnoflast in patients with moderate to severe active ulcerative colitis” (Clinical and Translational Medicine, 2023)
Converted amounts (≈) assume the structure as drawn. Where two headings read alike, the source gives them in different places.

What was measured:
[1] = Selnoflast plasma pharmacokinetics in UC patients (LC‐MS/MS, non‐compartmental); format: in vivo, human; conditions: for Tmax / concentration at 24 h / Cmax / half-life / AUC: 450 mg; for concentration at 24 h: read-out: Ctrough
Experimental: Selnoflast (450 mg QD or matching placebo) was administered orally in the morning following an overnight fast of at least 8 h during the patients’ 7‐day clinic stay. Water intake was restricted for 1 h pre‐dose and 1 h post‐dose, and no food was allowed until at least 4 h post‐dose.
The concentrations of selnoflast were determined in a total of 260 human plasma samples (obtained during the study) using a validated liquid chromatography‐tandem mass spectrometry (LC‐MS/MS) method. Sample analysis was performed after the addition of the internal standard by protein precipitation followed by LC‐MS/MS. The calibration range was between 40.0 ng/mL and 40000.0 ng/mL; the lower limit of quantification in human plasma was 40.0 ng/mL. Study samples were analyzed within the validated frozen storage stability timeframe of 371 days at −20°C and −70°C, the five validated freeze/thaw cycles, and proven room temperature storage stability of 24 h, in a total of six analytical runs. Five out of six runs met the acceptance criteria. The precision and accuracy (expressed as %RE) of the assay, as determined from the analysis of quality control samples, was satisfactory throughout the study.
All randomized patients were included in the intent‑to‑treat population. All patients completed all doses of study treatment and all were included in the safety, PK and PD analyses. Safety data were grouped according to treatment received and were tabulated and/or listed, as appropriate. PK parameters (including Tmax, Cmax, Ctrough, total exposure, drug accumulation, clearance, volume of distribution and T1/2) were extrapolated directly from the plasma concentration‐versus‐time profiles or calculated using standard non‐compartmental methods. PK and PD parameters were summarized and presented descriptively.

[2] = test system: IL‐1β release in ex vivo stimulated whole blood; set-up: method as in unpublished results, study IZD334-001; conditions: healthy subjects, 450 mg QD, ref unpublished results, study IZD334-001, cited from earlier work
IL‐1β = IL‐1β IC90 calculated from in vitro studies; format: cell-based; conditions: estimated
[3] = test system: IL‐1β release in activated human monocyte‐derived macrophages; set-up: method as in unpublished results; conditions: in vitro, ref unpublished results; cited from earlier work
[4] = Safety and tolerability in patients with ulcerative colitis; format: in vivo, human
Description: The primary objective of this study was to evaluate the PK, safety, and tolerability of selnoflast. The main endpoints were the incidence and severity of adverse events (AEs), changes in vital signs, 12‐lead electrocardiogram (ECG) parameters, and clinical laboratory safety parameters. AEs were monitored throughout the study and at the 14‐day follow‐up visit. Safety assessments included recording of the incidence and type of treatment‐emergent adverse events (TEAEs), discontinuations, serious TEAEs, and adverse events of special interest (AESIs) (including cases of elevated alanine aminotransferase [ALT] or aspartate aminotransferase [AST] in combination with either elevated bilirubin or clinical jaundice). Vital signs, ECGs, blood chemistry and hematology panels, coagulation panels and urinalysis were assessed at screening and at various time points during the study. Changes in absolute lymphocyte count were also assessed. Blood samples for PK analyses were obtained pre‐dose and at various timepoints up to 24 h post‐dose throughout the 7‐day in‐clinic treatment period, as well as once during the 14‐day follow‐up visit. As the 1‐week duration of the study was too short for assessing clinical changes, no clinical assessments were planned. Further details are given in the study protocol (Supporting Information).

[5] = test system: cells isolated from the sigmoid colon; test: Single‐cell RNA sequencing of sigmoid colon tissue; format: in vivo, human; conditions: pseudobulk method, baseline and Day 7
Experimental: Single cell suspensions were obtained from cryopreserved sigmoid colon tissue samples through mechanical and enzymatic dissociation, and loaded onto a 10X chromium controller for cell partitioning. Single‐cell RNA‐sequencing libraries were prepared using 10X genomics NextGEM single‐cell 3′ version 3.1 reagents and sequenced on an Illumina NovaSeq 6000 sequencer. Quality control, data filtering, and data analysis was performed with the BESCA software (version 2.5.1)[27] and the RiBIOS software suite, as well as using custom scripts in both R (version 4.2.0) and Python (version 3.8).

[6] = set-up: method as in Investigator Brochure; conditions: ref Investigator Brochure, cited from earlier work
[7] = test system: Breast Cancer Resistance Protein (BCRP); set-up: method as in Investigator Brochure; conditions: in vitro studies; ref Investigator Brochure; cited from earlier work
[8] = 450 mg QD repeat dosing, UC patients
[9] = human, plasma, po, 450 mg QD oral, fasted, UC patients N = 13, Day 1, geometric mean (CV% geo mean)
[10] = human, plasma, po, 450 mg QD oral, fasted, UC patients N = 13, steady‐state (Day 5), geometric mean (CV% geo mean)

SMILES: CCN1CCC(S(=O)(=O)NC(=O)Nc2c3c(cc4c2CCC4)CCC3)CC1 [Selnoflast, selnoflast]
- Ctrough ([1]; 450 mg QD oral, fasted, UC patients N = 13, Day 1 (Clast, 24 h), geometric mean (CV% geo mean)): 2.55 (38.8) μg/mL
- CL/F ([1]; 450 mg QD oral, fasted, UC patients N = 13, Day 1, geometric mean (CV% geo mean)): 1.82 (17.5) L/h
- Ctrough ([1]; 450 mg QD oral, fasted, UC patients N = 13, steady‐state (Day 5) (Clast, 24 h), geometric mean (CV% geo mean)): 2.66 (46.6) μg/mL
- CL/F ([1]; 450 mg QD oral, fasted, UC patients N = 13, steady‐state (Day 5), geometric mean (CV% geo mean)): 1.68 (21.0) L/h
- Accumulation: increase in AUCtau from Day 1 to Day 5 [1, 8]: 8.6%
- Accumulation: increase in Clast from Day 1 to Day 5 [1, 8]: 4.3%
- Accumulation: increase in Cmax from Day 1 to Day 5 [1, 8]: 17%
- Steady‐state achieved ([1]; 450 mg QD, UC patients): Day 2
- Tmax ([1]; human, plasma, oral, UC patients in the present study, read-out: Median Tmax): 1 to 2 h
- concentration at 24 h ([1]; human, plasma, po, 450 mg QD oral, fasted, UC patients N = 13, Day 1 (Clast, 24 h), geometric mean (CV% geo mean)): 2550 ng/mL
- Cmax [1, 9]: 25000 ng/mL
- half-life [1, 9]: 6.9 h
- AUC ([1]; human, plasma, po, 450 mg QD oral, fasted, UC patients N = 13, Day 1, geometric mean (CV% geo mean), read-out: AUC0‐inf): 275 µg·h/mL
- AUC ([1]; human, plasma, po, 450 mg QD oral, fasted, UC patients N = 13, Day 1, geometric mean (CV% geo mean), read-out: AUCtau): 247 µg·h/mL
- Tmax ([1]; human, plasma, po, 450 mg QD oral, fasted, UC patients N = 13, Day 1, median (range), read-out: Tmax): 1.97 h
- concentration at 24 h ([1]; human, plasma, po, 450 mg QD oral, fasted, UC patients N = 13, steady‐state (Day 5) (Clast, 24 h), geometric mean (CV% geo mean)): 2660 ng/mL
- Cmax [1, 10]: 29300 ng/mL
- half-life [1, 10]: 6.93 h
- AUC ([1]; human, plasma, po, 450 mg QD oral, fasted, UC patients N = 13, steady‐state (Day 5), geometric mean (CV% geo mean), read-out: AUCtau): 268 µg·h/mL
- Tmax ([1]; human, plasma, po, 450 mg QD oral, fasted, UC patients N = 13, steady‐state (Day 5), median (range), read-out: Tmax): 1 h
- Vd/F ([1]; human, plasma, 450 mg QD oral, fasted, UC patients N = 13, Day 1, geometric mean (CV% geo mean), read-out: Vz/F): 18.1 L
- Inhibition of IL‐1β release compared to baseline ([2]; over the dosing interval (24 hours)): over 90%
- Inhibition of IL‐1β release compared to baseline ([2]; over the dosing interval (24 hours), listed as RO7486967): 90%
- Inhibition of IL‐1β release compared to baseline ([2]; up to 10 h post‐dose): 99%
- IL‐1β IC90 (tissue) (IL‐1β): 1.94 µg/g
- IC90 (IL‐1β; read-out: IL‐1β IC90 (plasma)): 2 µg/mL (≈ 5.11 µM)
- Inhibition of IL‐1β release [3]: potent inhibitor
- Deaths ([4]; N = 13): 0
- Patients with at least one AE with fatal outcome ([4]; N = 13): 0
- AEs considered treatment‐related ([4]; human, in vivo, 7 days): 23.1%
- Dyspepsia, patients ([4]; human, in vivo, 7 days): 15.4%
- Headache, patients ([4]; human, in vivo, 7 days): 15.4%
- Patients with at least one AE leading to dose modification/interruption ([4]; human, in vivo, 7 days): 0
- Patients with at least one AE leading to withdrawal from treatment ([4]; human, in vivo, 7 days): 0
- Patients with at least one Related AE ([4]; human, in vivo, 7 days): 3 (23.1%)
- Patients with at least one Related AE leading to dose modification/ interruption ([4]; human, in vivo, 7 days): 0
- Patients with at least one Related AE leading to withdrawal from treatment ([4]; human, in vivo, 7 days): 0
- Patients with at least one Serious AE ([4]; human, in vivo, 7 days): 0
- Patients withdrawn from study due to AE ([4]; human, in vivo, 7 days): 0
- Severity of AEs ([4]; human, in vivo, 7 days): mild (Grade 1), with the exception of one AE of Grade 2 severity
- Cellular composition and gene expression, difference between treatment arms [5]: No significant differences
- Potential to cause direct hepatotoxicity ([6]; at therapeutically relevant concentrations, based on in vitro assessments): low
- Mitochondrial toxicity ([6]; in vitro): did not show mitochondrial toxicity
- BCRP substrate status [7]: potential substrate
